Data from patent US20170095502A1, “Antimicrobial Metal-Binding Polymers” (priority 2015, published 2017).

Experiments:
[1] = tested on: vancomycin-resistant Enterococcus faecalis; experiment: checkerboard assay, MIC; settings: VRE
[2] = tested on: methicillin-resistant Staphylococcus aureus; experiment: checkerboard assay, MIC; settings: MRSA
[3] = tested on: Vancomycin-resistant Staphylococcus aureus (VRSA); experiment: inhibitory concentrations against drug-resistant bacteria (potentiation of vancomycin); settings: at 16 ug/ml vancomycin
[4] = tested on: Vancomycin-resistant Enterococcus faecium (VRE); experiment: as above; settings: at 16 μg/ml vancomycin
S. aureus BAA-44 = experiment: MIC alone or in combination with tetracycline; settings: for MIC: Staphylococcus aureus, BAA44
Staphylococcus aureus = experiment: inhibitory concentrations in hospital-acquired clinical wound isolates
Candida albicans = experiment: as above
[5] = tested on: Francisella tularensis (rabbit fever); format: cell-based
[6] = tested on: Burkholderia pseudomallei (melioidosis); format: cell-based
[7] = tested on: Methicillin-resistant Staphylococcus aureus (MRSA); experiment: inhibitory concentrations against drug-resistant bacteria (potentiation of methicillin); settings: at 4 ug/ml methicillin
Enterococcus faecium = experiment: inhibitory concentrations in hospital-acquired clinical wound isolates
Yersinia pestis (plague) = format: cell-based
Pseudomonas aeruginosa = experiment: inhibitory concentrations in hospital-acquired clinical wound isolates
Acinetobacter baumannii = experiment: as above
[8] = tested on: Bacillus anthracis (anthrax); format: cell-based

COc1ccc2cc3[n+](cc2c1OC)CCc1cc2c(cc1-3)OCO2 [Berberine, berberine, reference compound]
MIC [1]: 500 µg/mL | MIC [2]: 500 µg/mL

S=C(S)N1CCCC1 [PDTC, pyrrolidine dithiocarbamate]
Inhibitory concentration ([3]; clinical isolate VRS 1): 13 µg/mL | Inhibitory concentration ([3]; clinical isolate VRS 9): 13 µg/mL | Inhibitory concentration ([3]; clinical isolate VRS 116): 13 µg/mL | Inhibitory concentration ([4]; clinical isolate 6098): 50 µg/mL | Inhibitory concentration ([4]; clinical isolate 6185): 50 µg/mL | Inhibitory concentration ([4]; clinical isolate 6591): 50 µg/mL | MIC (S. aureus BAA-44): 9 µg/mL | effect of PDTC and tetracycline (FIG. 1) (S. aureus BAA-44; combination with tetracycline): synergistic effect | Inhibitory concentration (Staphylococcus aureus; clinical isolate 6061): 25 µg/mL | Inhibitory concentration (Staphylococcus aureus; clinical isolate 6108): 12.5 µg/mL | Inhibitory concentration (Staphylococcus aureus; clinical isolate B-313): 25 µg/mL | Inhibitory concentration (Staphylococcus aureus; clinical isolate B-767): 50 µg/mL | Inhibitory concentration (Staphylococcus aureus; clinical isolate B-14358): 50 µg/mL | Inhibitory concentration (Candida albicans; clinical isolate Y-236): 12.5 µg/mL | Inhibitory concentration (Candida albicans; clinical isolate Y-477): 12.5 µg/mL | Inhibitory concentration (Candida albicans; clinical isolate Y-6359): 12.5 µg/mL | Inhibitory concentration (Candida albicans; clinical isolate Y-12983): 12.5 µg/mL | Inhibitory concentration (Candida albicans; clinical isolate Y-27022): 6.25 µg/mL | activity against biothreats [5]: active | activity against biothreats [6]: active | Inhibitory concentration ([7]; clinical isolate 6006): 25 µg/mL | Inhibitory concentration ([7]; clinical isolate 6051): 13 µg/mL | Inhibitory concentration ([7]; clinical isolate 6544): 13 µg/mL | Inhibitory concentration ([7]; clinical isolate 6605): 13 µg/mL | Inhibitory concentration ([7]; clinical isolate 6607): 13 µg/mL | Inhibitory concentration (Enterococcus faecium; clinical isolate 6080): 50 µg/mL | Inhibitory concentration (Enterococcus faecium; clinical isolate 6246): 50 µg/mL | Inhibitory concentration (Enterococcus faecium; clinical isolate 6831): 50 µg/mL | activity against biothreats (Yersinia pestis (plague)): active | Inhibitory concentration (Pseudomonas aeruginosa; clinical isolate 5983): 100 µg/mL | Inhibitory concentration (Pseudomonas aeruginosa; clinical isolate 6162): 100 µg/mL | Inhibitory concentration (Pseudomonas aeruginosa; clinical isolate 6186): 100 µg/mL | Inhibitory concentration (Pseudomonas aeruginosa; clinical isolate 6295): 100 µg/mL | Inhibitory concentration (Pseudomonas aeruginosa; clinical isolate 6311): 100 µg/mL | Inhibitory concentration (Acinetobacter baumannii; clinical isolate 6043): 100 µg/mL | Inhibitory concentration (Acinetobacter baumannii; clinical isolate 6063): 100 µg/mL | Inhibitory concentration (Acinetobacter baumannii; clinical isolate 6175): 100 µg/mL | Inhibitory concentration (Acinetobacter baumannii; clinical isolate 6272): 100 µg/mL | Inhibitory concentration (Acinetobacter baumannii; clinical isolate 6838): 100 µg/mL | MIC [1]: 62.5 µg/mL | MIC [2]: 62.5 µg/mL | activity against biothreats [8]: active

CN(C)[C@@H]1C(O)=C(C(N)=O)C(=O)[C@@]2(O)C(O)=C3C(=O)c4c(O)cccc4[C@@](C)(O)[C@H]3C[C@@H]12 [TET, tetracycline, reference compound]
MIC (S. aureus BAA-44): 32 µg/mL
